Tests used:
Settings in all cases: 48 h
NOMO1 [1] = assay: cell viability relative to DMSO control; higher = less cytotoxic
Outline: (§1)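 Viability, reported as a per-plate percentage of DMSO wells with cell-free wells as background, came from CellTiter-Glo One luminescence. Reading took place after 48 h at 37°C. Before that, NOMO1 or SEM (500 cells/well) or P12-Ichikawa (1000 cells/well) leukemia cells, adapted for at least four passages in each medium, were seeded in 1536-well plates (5 μl) and pin-dosed with library compounds in DMSO, 47 μM to 0.79 nM over 11 threefold points.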

P12-Ichikawa [2] = assay: as above
Outline: as §1

SEM cells [3] = assay: as above
Outline: as §1

NOMO1 [4] = assay: AUC of viability dose-response curve (% viability x log10 dose units); higher = less sensitive
Outline: (§2)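 Leukemia cells adapted to each medium were seeded in 1536-well plates (500 or 1000 cells/well) and given library compounds in DMSO for 48 h at 37°C. The 11 threefold doses spanned 47 μM to 0.79 nM, and CellTiter-Glo One luminescence was normalised per plate to DMSO and cell-free wells before four-parameter log-logistic fitting on log10 dose. Area under the curve was integrated with the trapezoidal rule, scaling curves above full viability and removing curves that failed quality control.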

P12-Ichikawa [5] = assay: as above
Outline: as §2

SEM cells [6] = assay: as above
Outline: as §2

C=CC(=O)Nc1cc2c(Nc3ccc(F)c(Cl)c3)ncnc2cc1OCCCN1CCOCC1
cell viability [%]
Settings	NOMO1 [1]	P12-Ichikawa [2]	SEM cells [3]
HPLM + 10% dialyzed FBS, 0.000781 µM	111	124	112
HPLM + 10% dialyzed FBS, 0.00234 µM	127	132	107
HPLM + 10% dialyzed FBS, 0.00702 µM	121	119	112
HPLM + 10% dialyzed FBS, 0.0211 µM	132	120	128
HPLM + 10% dialyzed FBS, 0.0632 µM	114	118	110
HPLM + 10% dialyzed FBS, 0.19 µM	104	122	124
HPLM + 10% dialyzed FBS, 0.569 µM	108	113	114
HPLM + 10% dialyzed FBS, 1.71 µM	105	109	90.3
HPLM + 10% dialyzed FBS, 5.12 µM	76.5	94.3	55
HPLM + 10% dialyzed FBS, 15.4 µM	59.1	67.2	39.2
HPLM + 10% dialyzed FBS, 46.1 µM	72.7	53.1	26.7
RPMI 5 mM glucose + 10% FBS, 0.000781 µM	123	117	87.7
RPMI 5 mM glucose + 10% FBS, 0.00234 µM	119	124	81.5
RPMI 5 mM glucose + 10% FBS, 0.00702 µM	126	125	85.3
RPMI 5 mM glucose + 10% FBS, 0.0211 µM	124	126	84
RPMI 5 mM glucose + 10% FBS, 0.0632 µM	128	111	73.1
RPMI 5 mM glucose + 10% FBS, 0.19 µM	108	110	78.6
RPMI 5 mM glucose + 10% FBS, 0.569 µM	104	118	80.2
RPMI 5 mM glucose + 10% FBS, 1.71 µM	110	110	68.6
RPMI 5 mM glucose + 10% FBS, 5.12 µM	103	93.5	41.7
RPMI 5 mM glucose + 10% FBS, 15.4 µM	88.2	73.6	24.2
RPMI 5 mM glucose + 10% FBS, 46.1 µM	94.3	89.8	42.9
RPMI 5 mM glucose + 10% dialyzed FBS, 0.000781 µM	116	134	119
RPMI 5 mM glucose + 10% dialyzed FBS, 0.00234 µM	111	122	114
RPMI 5 mM glucose + 10% dialyzed FBS, 0.00702 µM	117	119	95.4
RPMI 5 mM glucose + 10% dialyzed FBS, 0.0211 µM	108	126	127
RPMI 5 mM glucose + 10% dialyzed FBS, 0.0632 µM	120	126	112
RPMI 5 mM glucose + 10% dialyzed FBS, 0.19 µM	109	128	110
RPMI 5 mM glucose + 10% dialyzed FBS, 0.569 µM	105	127	108
RPMI 5 mM glucose + 10% dialyzed FBS, 1.71 µM	101	108	89
RPMI 5 mM glucose + 10% dialyzed FBS, 5.12 µM	80.5	96.4	56.3
RPMI 5 mM glucose + 10% dialyzed FBS, 15.4 µM	73.4	91.6	29.1
RPMI 5 mM glucose + 10% dialyzed FBS, 46.1 µM	90.4	100	58.8

AUC of viability dose-response curve
Settings	HPLM + 10% dialyzed FBS	RPMI 5 mM glucose + 10% FBS	RPMI 5 mM glucose + 10% dialyzed FBS
NOMO1 [4]	421	429	438
P12-Ichikawa [5]	421	441	442

COc1cc(C(=O)N2CC[C@@H](O)[C@@H](N)C2)cc2nc(-c3cc4ccccc4n3CC3CC3)n(C)c12
cell viability [%]
Settings	P12-Ichikawa [2]	SEM cells [3]
HPLM + 10% dialyzed FBS, 0.000781 µM	117	97.9
HPLM + 10% dialyzed FBS, 0.00234 µM	116	118
HPLM + 10% dialyzed FBS, 0.00702 µM	123	116
HPLM + 10% dialyzed FBS, 0.0211 µM	121	124
HPLM + 10% dialyzed FBS, 0.0632 µM	121	119
HPLM + 10% dialyzed FBS, 0.19 µM	44.3	117
HPLM + 10% dialyzed FBS, 0.569 µM	31	124
HPLM + 10% dialyzed FBS, 1.71 µM	27.5	51.1
HPLM + 10% dialyzed FBS, 5.12 µM	29	28.6
HPLM + 10% dialyzed FBS, 15.4 µM	23.8	27.4
HPLM + 10% dialyzed FBS, 46.1 µM	18.6	20.1
RPMI 5 mM glucose + 10% FBS, 0.000781 µM	119	–
RPMI 5 mM glucose + 10% FBS, 0.00234 µM	127	–
RPMI 5 mM glucose + 10% FBS, 0.00702 µM	123	–
RPMI 5 mM glucose + 10% FBS, 0.0211 µM	122	–
RPMI 5 mM glucose + 10% FBS, 0.0632 µM	137	–
RPMI 5 mM glucose + 10% FBS, 0.19 µM	117	–
RPMI 5 mM glucose + 10% FBS, 0.569 µM	111	–
RPMI 5 mM glucose + 10% FBS, 1.71 µM	33.4	–
RPMI 5 mM glucose + 10% FBS, 5.12 µM	25.9	–
RPMI 5 mM glucose + 10% FBS, 15.4 µM	21.5	–
RPMI 5 mM glucose + 10% FBS, 46.1 µM	11.2	–

AUC of viability dose-response curve
Settings	NOMO1 [4]	P12-Ichikawa [5]	SEM cells [6]
HPLM + 10% dialyzed FBS	294	279	357
RPMI 5 mM glucose + 10% FBS	327	336	276
RPMI 5 mM glucose + 10% dialyzed FBS	338	324	335

Cc1cnc(Nc2ccc(F)cc2Cl)nc1-c1c[nH]c(C(=O)N[C@H](CO)c2cccc(Cl)c2)c1
SEM cells [3], HPLM + 10% dialyzed FBS
Settings	cell viability [%]
0.000781 µM	109
0.00234 µM	125
0.00702 µM	114
0.0211 µM	137
0.0632 µM	126
0.19 µM	134
0.569 µM	134
1.71 µM	125
5.12 µM	136
15.4 µM	121
46.1 µM	84.9

AUC of viability dose-response curve
Settings	NOMO1 [4]	P12-Ichikawa [5]	SEM cells [6]
HPLM + 10% dialyzed FBS	353	389	467
RPMI 5 mM glucose + 10% FBS	335	384	452
RPMI 5 mM glucose + 10% dialyzed FBS	364	411	443

ClC/1=C(NCCN2CCOCC2)/C(=O)C3=C(C=CC=N3)C1=O
SEM cells [3], HPLM + 10% dialyzed FBS
Settings	cell viability [%]
0.000781 µM	104
0.00234 µM	105
0.00702 µM	121
0.0211 µM	118
0.0632 µM	131
0.19 µM	127
0.569 µM	127
1.71 µM	115
5.12 µM	95.4
15.4 µM	35.8
46.1 µM	4.66

AUC of viability dose-response curve
Settings	NOMO1 [4]	P12-Ichikawa [5]	SEM cells [6]
HPLM + 10% dialyzed FBS	416	450	410
RPMI 5 mM glucose + 10% FBS	410	445	381
RPMI 5 mM glucose + 10% dialyzed FBS	406	438	392

Cc1cc(Nc2cc(N3CCN(C)CC3)nc(Sc3ccc(NC(=O)C4CC4)cc3)n2)[nH]n1
AUC of viability dose-response curve
Settings	NOMO1 [4]	P12-Ichikawa [5]	SEM cells [6]
HPLM + 10% dialyzed FBS	389	298	304
RPMI 5 mM glucose + 10% FBS	390	302	286
RPMI 5 mM glucose + 10% dialyzed FBS	376	315	286

CCCCC(C)(C)[C@H](O)/C=C/[C@H]1[C@H](O)CC(=O)[C@@H]1C/C=C\CCCC(=O)O
SEM cells [3], RPMI 5 mM glucose + 10% FBS
Settings	cell viability [%]
0.000781 µM	101
0.00234 µM	123
0.00702 µM	131
0.0211 µM	120
0.0632 µM	119
0.19 µM	137
0.569 µM	117
1.71 µM	130
5.12 µM	51.5
15.4 µM	78.2
46.1 µM	13.4

AUC of viability dose-response curve
Settings	NOMO1 [4]	P12-Ichikawa [5]	SEM cells [6]
HPLM + 10% dialyzed FBS	437	447	401
RPMI 5 mM glucose + 10% FBS	453	437	407
RPMI 5 mM glucose + 10% dialyzed FBS	431	442	403

Cc1ccc2c(=O)c3cccc(CC(=O)O)c3oc2c1C
AUC of viability dose-response curve
Settings	NOMO1 [4]	P12-Ichikawa [5]	SEM cells [6]
HPLM + 10% dialyzed FBS	435	471	447
RPMI 5 mM glucose + 10% FBS	471	464	440
RPMI 5 mM glucose + 10% dialyzed FBS	429	460	449

CC(C)CN(C[C@@H](O)[C@H](Cc1ccccc1)NC(=O)O[C@H]1CCOC1)[S+](=O)([O-])c1ccc(N)cc1
AUC of viability dose-response curve
Settings	NOMO1 [4]	P12-Ichikawa [5]	SEM cells [6]
HPLM + 10% dialyzed FBS	440	396	410
RPMI 5 mM glucose + 10% FBS	453	382	369
RPMI 5 mM glucose + 10% dialyzed FBS	443	362	365

CCN[C@H]1C[C@H](C)[S+](=O)([O-])c2sc([S+](N)(=O)[O-])cc21
SEM cells [3], HPLM + 10% dialyzed FBS
Settings	cell viability [%]
0.000781 µM	137
0.00234 µM	100
0.00702 µM	120
0.0211 µM	126
0.0632 µM	36.4
0.19 µM	129
0.569 µM	135
1.71 µM	126
5.12 µM	52.8
15.4 µM	131
46.1 µM	118

AUC of viability dose-response curve
Settings	HPLM + 10% dialyzed FBS	RPMI 5 mM glucose + 10% FBS	RPMI 5 mM glucose + 10% dialyzed FBS
NOMO1 [4]	434	452	415
P12-Ichikawa [5]	460	440	471

OC1=CC=C(C=C1)\C2=C(O)\C(=O)C3=C(O2)C=C(O)C=C3O
SEM cells [3], RPMI 5 mM glucose + 10% FBS
Settings	cell viability [%]
0.000781 µM	119
0.00234 µM	100
0.00702 µM	116
0.0211 µM	127
0.0632 µM	127
0.19 µM	133
0.569 µM	135
1.71 µM	128
5.12 µM	127
15.4 µM	123
46.1 µM	87.2

AUC of viability dose-response curve
Settings	NOMO1 [4]	P12-Ichikawa [5]	SEM cells [6]
HPLM + 10% dialyzed FBS	443	465	466
RPMI 5 mM glucose + 10% FBS	458	437	469
RPMI 5 mM glucose + 10% dialyzed FBS	466	449	470

C/C=C/C(=O)N(CC)c1ccccc1C
AUC of viability dose-response curve
Settings	NOMO1 [4]	P12-Ichikawa [5]	SEM cells [6]
HPLM + 10% dialyzed FBS	393	458	434
RPMI 5 mM glucose + 10% FBS	431	470	465
RPMI 5 mM glucose + 10% dialyzed FBS	399	432	428

COc1nc(C)cnc1N[S+](=O)([O-])c1cccnc1-c1ccc(-c2nnco2)cc1
AUC of viability dose-response curve
Settings	HPLM + 10% dialyzed FBS	RPMI 5 mM glucose + 10% FBS	RPMI 5 mM glucose + 10% dialyzed FBS
NOMO1 [4]	465	455	474
SEM cells [6]	471	452	460
